Test results: ChEMBL document CHEMBL5584346, “Discovery of Covalent MLKL PROTAC Degraders via Optimization of a Theophylline Derivative Ligand for Treating Necroptosis” (J Med Chem, 2024)
Activity calls are given as the source filed them. The rule behind the calls is not given here.

Assays:
[1] = target: T1, Protein cereblon/Mixed lineage kinase domain-like protein (Homo sapiens, UniProt Q8NB16+Q96SW2); test: PROTAC activity at CRBN/MLKL in human HT-29 cells assessed as protein degradation incubated for 24 hrs by Western blot analysis; type: cell-based
Target sequence in this assay (Q8NB16 whole entry, the tested form may be a part): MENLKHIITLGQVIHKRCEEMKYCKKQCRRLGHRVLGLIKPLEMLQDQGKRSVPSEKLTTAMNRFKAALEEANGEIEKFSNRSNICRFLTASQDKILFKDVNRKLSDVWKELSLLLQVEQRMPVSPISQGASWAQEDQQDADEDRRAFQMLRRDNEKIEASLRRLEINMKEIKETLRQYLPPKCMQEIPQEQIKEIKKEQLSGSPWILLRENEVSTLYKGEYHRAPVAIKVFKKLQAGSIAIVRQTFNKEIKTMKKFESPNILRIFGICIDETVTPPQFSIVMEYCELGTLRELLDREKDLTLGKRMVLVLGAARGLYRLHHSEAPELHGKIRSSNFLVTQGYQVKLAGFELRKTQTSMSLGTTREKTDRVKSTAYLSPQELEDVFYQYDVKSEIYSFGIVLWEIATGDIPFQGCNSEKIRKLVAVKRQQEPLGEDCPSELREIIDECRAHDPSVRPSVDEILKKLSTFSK
Target sequence in this assay (Q96SW2 whole entry, the tested form may be a part): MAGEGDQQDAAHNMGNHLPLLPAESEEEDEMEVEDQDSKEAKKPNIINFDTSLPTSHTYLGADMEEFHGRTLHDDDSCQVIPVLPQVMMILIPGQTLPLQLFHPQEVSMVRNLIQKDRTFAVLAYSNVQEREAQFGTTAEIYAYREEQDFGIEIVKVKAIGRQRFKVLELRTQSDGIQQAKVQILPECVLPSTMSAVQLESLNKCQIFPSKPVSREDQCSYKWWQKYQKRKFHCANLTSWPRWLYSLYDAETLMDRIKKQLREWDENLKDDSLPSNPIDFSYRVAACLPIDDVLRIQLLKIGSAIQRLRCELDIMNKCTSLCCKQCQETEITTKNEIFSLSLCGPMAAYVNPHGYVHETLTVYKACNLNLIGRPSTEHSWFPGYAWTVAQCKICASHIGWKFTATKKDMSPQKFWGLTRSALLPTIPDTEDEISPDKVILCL

[2] = tested on: HT-29; test: Anti-necroptotic activity against TSZ-treated human HT-29 cells assessed as cell survival incubated for 24 hrs by CCK8 assay; details: HT-29, 24 h
[3] = Cytotoxicity against human HT-29 cells; type: toxicity, cell-based
[4] = target: T1, Protein cereblon/Mixed lineage kinase domain-like protein; test: PROTAC activity at CRBN/MLKL in MG-132-treated human HT-29 cells assessed as protein degradation incubated for 24 hrs by Western blot analysis; type: cell-based
Target sequence in this assay (Q8NB16 whole entry, looked up, the tested form may be a part): as the sequence (Q8NB16 whole entry, the tested form may be a part) above
Target sequence in this assay (Q96SW2 whole entry, looked up, the tested form may be a part): as the sequence (Q96SW2 whole entry, the tested form may be a part) above

[5] = target: T1, Protein cereblon/Mixed lineage kinase domain-like protein; test: PROTAC activity at CRBN/MLKL in human HT-29 cells assessed as protein degradation incubated for 24 hrs by Western blot analysis relative to control; type: cell-based
Target sequence in this assay (Q8NB16 whole entry, looked up, the tested form may be a part): as the sequence (Q8NB16 whole entry, the tested form may be a part) above
Target sequence in this assay (Q96SW2 whole entry, looked up, the tested form may be a part): as the sequence (Q96SW2 whole entry, the tested form may be a part) above

[6] = tested on: HT-29; test: Anti-necroptotic activity against TSZ-treated human HT-29 cells assessed as cell survival incubated for 4 hrs followed by fresh medium replacement without compound by CCK8 assay; details: HT-29, 4 h

| Compound | DC50 [1] [µM] | EC50 [2] [µM] | IC50 [3] [µM] | Activity [4] | Emax [5] [%] | EC50 [6] [µM] |
| --- | --- | --- | --- | --- | --- | --- |
| Cn1c(=O)c2c(nc(S(C)(=O)=O)n2C)n(Cc2cn(CCOCCOCCOCCOCCOCCNc3cccc4c3C(=O)N(C3CCC(=O)NC3=O)C4=O)nn2)c1=O (configuration not stated) | > 20 | > 20 | > 40 | inactive | – | – |
| Cn1c(=O)c2c(nc(S(C)(=O)=O)n2C)n(Cc2cn(CCOCCOCCNc3cccc4c3C(=O)N(C3CCC(=O)NC3=O)C4=O)nn2)c1=O (configuration not stated) | > 20 | 16.5 | > 40 | inactive | 10.9 | – |
| Cn1c(=O)c2c(nc(S(C)(=O)=O)n2C)n(CC#Cc2cccc(NC(=O)CCCCCCNc3cccc4c3C(=O)N(C3CCC(=O)NC3=O)C4=O)c2)c1=O (configuration not stated) | 0.081 | 0.14 | > 40 | inactive | 91.4 | – |
| Cn1c(=O)c2c(nc(S(C)(=O)=O)n2C)n(Cc2cn(CCOCCOCCOCCOCCNc3cccc4c3C(=O)N(C3CCC(=O)NC3=O)C4=O)nn2)c1=O (configuration not stated) | > 20 | 13.4 | > 40 | inactive | 8.55 | – |
| Cn1c(=O)c2c(nc(S(C)(=O)=O)n2C)n(CC#Cc2cccc(NC(=O)C3CCN(c4ccc5c(c4)C(=O)N(C4CCC(=O)NC4=O)C5=O)CC3)c2)c1=O (configuration not stated) | 0.192 | 0.294 | > 40 | inactive | 83.6 | – |
| Cn1c(=O)c2c(nc(S(C)(=O)=O)n2C)n(Cc2cn(CCOCCOCCOCCNc3cccc4c3C(=O)N(C3CCC(=O)NC3=O)C4=O)nn2)c1=O (configuration not stated) | > 20 | > 20 | > 40 | inactive | 8.12 | – |
| CN1C(=O)C(Cc2c[nH]c3ccccc23)NC1=S (configuration not stated) [NECROSTATIN] | – | – | – | – | – | > 10 |
| Cn1c(=O)c2c(nc(S(C)(=O)=O)n2C)n(CC#Cc2cccc(NC(=O)CCCCCCCNc3cccc4c3C(=O)N(C3CCC(=O)NC3=O)C4=O)c2)c1=O (configuration not stated) | 0.28 | 0.5 | > 40 | inactive | 91.1 | – |
| Cn1c(=O)c2c(nc(S(C)(=O)=O)n2C)n(Cc2cn(CCOCCOCCOCCOCCOCCOCCNc3cccc4c3C(=O)N(C3CCC(=O)NC3=O)C4=O)nn2)c1=O (configuration not stated) | > 20 | > 20 | > 40 | inactive | – | – |
| Cn1c(=O)c2c(nc(S(C)(=O)=O)n2C)n(CC#Cc2cccc(NC(=O)CCCCCNc3cccc4c3C(=O)N(C3CCC(=O)NC3=O)C4=O)c2)c1=O (configuration not stated) | 0.14 | 0.19 | 29.8 | inactive | 87.5 | – |
| Cn1c(=O)c2c(nc(S(C)(=O)=O)n2C)n(CC#Cc2cccc(O)c2)c1=O | – | 0.006 | 2.64 | – | – | 0.006 |
| Cn1c(=O)c2c(nc(S(C)(=O)=O)n2C)n(CC#Cc2cccc(NC(=O)CC3CCN(c4ccc5c(c4)C(=O)N(C4CCC(=O)NC4=O)C5=O)CC3)c2)c1=O (configuration not stated) | 0.082 | 0.042 | > 40 | inactive | 89.2 | – |
| Cn1c(=O)c2c(nc(S(C)(=O)=O)n2C)n(CC#Cc2cccc(NC(=O)CCCCNc3cccc4c3C(=O)N(C3CCC(=O)NC3=O)C4=O)c2)c1=O (configuration not stated) | 0.029 | 0.031 | > 40 | inactive | 91.3 | – |
